Experimental data: ChEMBL document CHEMBL1141132, “6-[1-(2,6-difluorophenyl)ethyl]pyrimidinones antagonize cell proliferation and induce cell differentiation by inhibiting (a nontelomeric) endogenous reverse transcriptase” (2005)

Assays:
A-375 [1] = assay: Effect on alive human A-375 cell death treated with DMSO(control) at a concentration of 50 uM; type: functional
A-375 [2] = assay: Effect on necrotic human A-375 cell death treated with DMSO(control) at a concentration of 50 uM; type: functional
A-375 [3] = assay: Effect on necrotic human A-375 cell death treated with DMSO(control) at a concentration of 10 uM; type: functional
A-375 [4] = assay: Percentage inhibition of proliferation against alive human A-375 cells treated with DMSO (control) at a concentration of 40 uM; type: functional
A-375 [5] = assay: Effect on alive human A-375 cell death treated with DMSO(control) at a concentration of 25 uM; type: functional
A-375 [6] = assay: Effect on necrotic human A-375 cell death treated with DMSO(control) at a concentration of 40 uM; type: functional
A-375 [7] = assay: Percentage of alive human A-375 cells relative to DMSO-treated control at a concentration of 10 uM
A-375 [8] = assay: Effect on apoptotic human A-375 cell death treated with DMSO(control) at a concentration of 25 uM; type: functional
A-375 [9] = assay: Effect on apoptotic human A-375 cell death treated with DMSO(control) at a concentration of 10 uM; type: functional
A-375 [10] = assay: Effect on apoptotic human A-375 cell death treated with DMSO(control) at a concentration of 40 uM; type: functional
A-375 [11] = assay: Percentage of alive human A-375 cells relative to DMSO-treated control at a concentration of 25 uM
A-375 [12] = assay: Effect on apoptotic human A-375 cell death treated with DMSO(control) at a concentration of 50 uM; type: functional
A-375 [13] = assay: Effect on alive human A-375 cell death treated with DMSO(control) at a concentration of 10 uM; type: functional
A-375 [14] = assay: Effect on alive human A-375 cell death treated with DMSO(control) at a concentration of 40 uM; type: functional
A-375 [15] = assay: Percentage inhibition of proliferation against alive human A-375 cells treated with DMSO (control) at a concentration of 50 uM; type: functional
A-375 [16] = assay: Effect on necrotic human A-375 cell death treated with DMSO(control) at a concentration of 25 uM; type: functional
A-375 [17] = assay: Percentage of alive human A-375 cells relative to DMSO-treated control at a concentration of 15 uM
A-375 [18] = assay: Percentage inhibition of proliferation against alive human A-375 cells treated with DMSO (control) at a concentration of 350 uM; type: functional

Row | Compound | Activity (A-375 [1]) | Activity (A-375 [2]) | Activity (A-375 [3]) | inhibition at 40 µM (A-375 [4]) | Activity (A-375 [5]) | Activity (A-375 [6]) | alive cells at 10 µM (A-375 [7]) | Activity (A-375 [8]) | Activity (A-375 [9]) | Activity (A-375 [10]) | alive cells at 25 µM (A-375 [11]) | Activity (A-375 [12]) | Activity (A-375 [13]) | Activity (A-375 [14]) | inhibition at 50 µM (A-375 [15]) | Activity (A-375 [16]) | alive cells at 15 µM (A-375 [17]) | inhibition at 350 µM (A-375 [18])
1 | Cc1c(C(C)c2c(F)cccc2F)nc(SC2CCCC2)[nH]c1=O (centres undefined) | 80% | 7.2% | 1% | 65% | 96.4% | 0.3% | 77% | 2.6% | 2.3% | 1% | 72% | 12.8% | 96.7% | 98.7% | 14% | 1% |  | 
2 | Cc1c(C(C)c2c(F)cccc2F)nc(N(C)C)[nH]c1=O (centres undefined) | 89% | 2.6% | 0.8% | 42% | 96.3% | 0.9% | 91% | 2.3% | 1.8% | 3.1% | 86% | 8.4% | 97.4% | 96% | 30% | 1% |  | 
3 | O=C1Nc2ccc(Cl)cc2[C@@](C#CC2CC2)(C(F)(F)F)O1 [EFAVIRENZ] |  |  |  |  |  |  |  |  |  |  |  |  |  |  |  |  | 51% | 
4 | Cc1ccnc2c1NC(=O)c1cccnc1N2C1CC1 [NEVIRAPINE] |  |  |  |  |  |  |  |  |  |  |  |  |  |  |  |  |  | 35%
